Key:
[1] = Epimerization of minocycline versus tigecycline lyophilized at pH about 5.0, HPLC; assay type: physicochemical; details: lyophilized at pH about 5.0, stored 4 days at 40° C. and 75% relative humidity
Protocol: In another experiment, minocycline was lyophilized at a pH of about 5.0 and the lyophilized cake was stored for 20 days at 40° C. and 75% relative humidity. At the end of the 20 days, the cake was analyzed by HPLC. The epimer of minocycline was measured to be present at a level of 2.65% by mass. By comparison, when tigecycline was lyophilized at a pH of about 5.0 and the sample stored under the same conditions, but for only 4 days followed by HPLC analysis, the tigecycline epimer was measured to be at a level of 5.40%, over twice as much even though tigecycline was only stressed for ⅕^th as long as minocycline. Thus, tigecycline epimerizes much more readily than minocycline, and epimerization is a much more significant problem with tigecycline than it is for minocycline.

[2] = pH of tigecycline dissolved in water prior to lyophilization; assay type: physicochemical
Protocol: Tigecycline has such a short admixture time and the reconstitution time is essentially zero because in solution, tigecycline oxidation is relatively rapid. Under current manufacturing, storage, and administration conditions, the most prevalent form of degradation is via oxidation. The reason oxidation is the most prevalent form of degradation in previous formulations relates to the chemical structure of tigecycline. […] When tigecycline is dissolved in water prior to lyophilization, the pH is slightly basic (about 7.8). This is higher than the pKa of the phenolic group on tigecycline. Thus, in both water and saline solutions, the phenolic group becomes deprotonated and more susceptible to reaction with oxygen which is why tigecycline compounding and lyophilization occur under a nitrogen blanket. Accordingly, care to avoid unnecessary exposure to oxygen must be taken by hospital staff during reconstitution and dilution.

[3] = oral; cited from earlier work
[4] = test system: methicillin-resistant Staphylococcus aureus; details: cited from earlier work
[5] = test system: penicillin-resistant Streptococcus pneumoniae; details: cited from earlier work
[6] = test system: vancomycin-resistant enterococci; details: cited from earlier work
[7] = existing composition, 1 mg/mL after dilution; cited from earlier work
bacteria = details: compared with tigecycline; cited from earlier work

Row | level of the tigecycline epimer [1] [%] | pH of solution in water [2] | SMILES | bioavailability when given orally [3] | activity against methicillin-resistant Staphylococcus aureus [4] | activity against penicillin-resistant Streptococcus pneumoniae [5] | activity against vancomycin-resistant enterococci [6] | time within which the diluted solution should be used [7] [h] | anti-bacterial efficacy (bacteria)
1 | 5.40 | about 7.8 | CN(C)c1cc(NC(=O)CNC(C)(C)C)c(O)c2c1C[C@H]1C[C@H]3[C@H](N(C)C)C(O)=C(C(N)=O)C(=O)[C@@]3(O)C(O)=C1C2=O [Tigecycline] | generally poor | active | active | active | ≤ 6 | 
2 |  |  | CN(C)c1cc(NC(=O)CNC(C)(C)C)c(O)c2c1C[C@H]1C[C@H]3[C@@H](N(C)C)C(O)=C(C(N)=O)C(=O)[C@@]3(O)C(O)=C1C2=O [tigecycline epimer] |  |  |  |  |  | lacks the anti-bacterial efficacy of tigecycline
